This assay has as its target human TrkA (Homo sapiens (Human), UniProt P04629). Briefly: Human TrkA inhibition assay (Test Example 2). Format: biochemical. In short, it runs like this:
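Mobility-shift readout of phosphorylated versus unphosphorylated fluorescent peptide gave conversion ratio, normalized to DMSO and no-enzyme wells; IC50 by logistic fit of 10- or 15-point 3-fold dilutions. Conditions: 1 nmol/L enzyme, 15 min compound preincubation, then 500 μmol/L ATP plus 1.5 μmol/L peptide, 120 min, 37 °C.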

Setting [1] is: Table 157, human TrkA inhibition, read-out: IC50.
The mark [2] stands for this setting: Table 156, human TrkA inhibition, read-out: IC50.
The mark [3] stands for this setting: Table 152, human TrkA inhibition, read-out: IC50_nM.

Like-named read-outs stand apart in the source and are kept apart here. Where only a bound is given, the exact number is not on record here.

Sequence of human TrkA (P04629 440-796): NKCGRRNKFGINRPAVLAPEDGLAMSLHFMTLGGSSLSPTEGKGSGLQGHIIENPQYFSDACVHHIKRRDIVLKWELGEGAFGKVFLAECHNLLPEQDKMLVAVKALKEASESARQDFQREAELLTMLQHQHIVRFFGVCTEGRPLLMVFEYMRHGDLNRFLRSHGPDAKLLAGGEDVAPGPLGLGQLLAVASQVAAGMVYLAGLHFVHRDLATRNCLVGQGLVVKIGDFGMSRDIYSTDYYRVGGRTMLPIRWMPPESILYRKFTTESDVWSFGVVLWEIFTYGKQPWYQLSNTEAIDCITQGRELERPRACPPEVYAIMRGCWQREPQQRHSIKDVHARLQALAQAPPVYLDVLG

Consider `CCN1C[C@@H](NC(=O)Nc2c(C)c(OCCCC(=O)NCC(C)(C)O)nn2-c2ccccc2)[C@H](c2ccc(F)c(F)c2)O1` (racemic) [Compound I-669], for which the IC50 under setting [1] was less than 100 nM.

With `CCN1C[C@@H](NC(=O)Nc2c(C)c(OCCCCO)nn2-c2ccccc2)[C@H](c2ccc(F)c(F)c2)O1` (racemic) [Compound I-670], the IC50 under setting [1] is less than 100 nM.

`CCN1C[C@@H](NC(=O)Nc2c(C)c(OCCC3CCNCC3)nn2-c2ccccc2)[C@H](c2ccc(F)c(F)c2)O1` (racemic) [Compound I-671]: the IC50 under setting [1] was less than 100 nM.

On to `CCN1C[C@@H](NC(=O)Nc2c(C)c(OCCC3CCN(C)CC3)nn2-c2ccccc2)[C@H](c2ccc(F)c(F)c2)O1` (racemic) [Compound I-672], for which the IC50 under setting [1] is less than 100 nM.

Turning to `COCCN1C[C@@H](NC(=O)Nc2c(C(F)F)c(C)nn2-c2ccccc2)[C@H](c2ccnc(F)c2)O1` (racemic) [Compound I-673], the IC50 under setting [1] is 100 to 1000 nM.

`COCCN1C[C@@H](NC(=O)Nc2c(Cl)c(-c3cnc(OC)nc3)nn2-c2ccccc2)[C@H](c2ccnc(F)c2)O1` (racemic) [Compound I-674]: where the note is “human TrkA 1 nmol/L, ATP 500 μmol/L, 120 min at 37° C., read-out: IC50 values (TrkA phosphorylation inhibition)”, the IC50 came to 5.8 nM.

As to `CCCN1C[C@@H](NC(=O)Nc2c(C)c(-c3cnc(OC)nc3)nn2-c2ccccc2)[C@H](c2ccc(F)c(F)c2)O1` (racemic) [Compound I-676], the IC50 under setting [1] is less than 100 nM.

As for `CCCCN1C[C@@H](NC(=O)Nc2c(C)c(-c3cnc(OC)nc3)nn2-c2ccccc2)[C@H](c2ccc(F)c(F)c2)O1` (racemic) [Compound I-677], under setting [1], the IC50 was less than 100 nM.

For `COc1ncc(-c2nn(-c3ccccc3)c(NC(=O)N[C@@H]3CN(CCCO)O[C@H]3c3ccc(F)c(F)c3)c2C)cn1` (racemic) [Compound I-678], the IC50 under setting [1] fell in the range of 100 to 1000 nM.

As to `COCCN1C[C@@H](NC(=O)Nc2c(C)c(OCC3CNCCO3)nn2-c2ccccc2)[C@H](c2ccc(F)c(F)c2)O1` (single isomer, unassigned) [Compound I-575], the IC50 under setting [2] was less than 100 nM.

On to `COCCN1C[C@@H](NC(=O)Nc2c(C)c(OCC3CNCCO3)nn2-c2ccccc2)[C@H](c2ccc(F)c(F)c2)O1` (single isomer, unassigned) [Compound I-576], for which the IC50 under setting [2] was less than 100 nM.

Regarding `COCCN1C[C@@H](NC(=O)Nc2c(C)c(OCC3CN(C(C)=O)CCO3)nn2-c2ccccc2)[C@H](c2ccc(F)c(F)c2)O1` (single isomer, unassigned) [Compound I-577], under setting [2], the IC50 is less than 100 nM.

`COCCN1C[C@@H](NC(=O)Nc2c(C)c(OCC3CN(C(C)=O)CCO3)nn2-c2ccccc2)[C@H](c2ccc(F)c(F)c2)O1` (single isomer, unassigned) [Compound I-578]: the IC50 under setting [2] was less than 100 nM.

Consider `COCCN1C[C@@H](NC(=O)Nc2c(C)c(OCC3CN(C)CCO3)nn2-c2ccccc2)[C@H](c2ccc(F)c(F)c2)O1` (single isomer, unassigned) [Compound I-579], for which, under setting [2], the IC50 was less than 100 nM.

Regarding `COCCC1C[C@@H](NC(=O)Nc2c(C)c(-c3ccc4c(cnn4C)c3)nn2-c2ccccc2)[C@H](c2ccccc2)O1` (stereo partly drawn) [Compound I-11], the IC50 under setting [3] was less than 100 nM.

As for `COCCC1C[C@@H](NC(=O)Nc2c(C)c(-c3ccc(C(=O)OC(C)(C)C)cc3)nn2-c2ccccc2)[C@H](c2ccccc2)O1` (stereo partly drawn) [Compound I-13], under setting [3], the IC50 was less than 100 nM.

In the case of `COCCC1C[C@@H](NC(=O)Nc2c(C)c(-c3ccc(OCc4ccccc4)nc3)nn2-c2ccccc2)[C@H](c2ccccc2)O1` (stereo partly drawn) [Compound I-14], the IC50 under setting [3] is less than 100 nM.

Turning to `COCCC1C[C@@H](NC(=O)Nc2c(C)c(-c3ccc(C(=O)O)cc3)nn2-c2ccccc2)[C@H](c2ccccc2)O1` (stereo partly drawn) [Compound I-15], the IC50 under setting [3] is less than 100 nM.

For the compound `COCCC1C[C@@H](NC(=O)Nc2c(C)c(-c3cnn(C)c3)nn2-c2ccccc2)[C@H](c2ccccc2)O1` (stereo partly drawn) [Compound I-16], the IC50 under setting [3] is less than 100 nM.

For `COCCC1C[C@H](NC(=O)Nc2c(C)c(-c3cnn(C)c3)nn2-c2ccccc2)[C@@H](c2ccccc2)O1` (stereo partly drawn) [Compound I-17], the IC50 under setting [3] was greater than 1000 nM.

`COCCC1C[C@@H](NC(=O)Nc2c(C)c(-c3ccc(=O)[nH]c3)nn2-c2ccccc2)[C@H](c2ccccc2)O1` (stereo partly drawn) [Compound I-18]: the IC50 under setting [3] was less than 100 nM.

The values above are taken from patent US10640495B2, “Heterocycle derivatives having TrkA inhibitory activity” (Shionogi & Co., Ltd., priority 2015, dated 2020).
